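Method: 48-hour compound exposure of cells in 96-well plates, five concentrations, linear interpolation of endpoints. GI50: concentration for 50% inhibition of growth. TGI denotes the concentration required for complete inhibition of growth.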
Key:
Experiment in all cases: growth of human tumour cells (NCI), 48 h; in the data active means GI50 below about 0.43 µM; inactive means the rest
[1] = tested on: CAKI-1 renal
[2] = tested on: HOP-92 NSCLC
[3] = tested on: OVCAR-3 ovarian
[4] = tested on: LOX IMVI melanoma
[5] = tested on: SK-MEL-5 melanoma
[6] = tested on: PC-3 prostate
[7] = tested on: A549 NSCLC
[8] = tested on: COLO 205 colon
[9] = tested on: MOLT-4 leukemia
[10] = tested on: CCRF-CEM leukemia
[11] = tested on: MCF7 breast
[12] = tested on: MDA-MB-435
[13] = tested on: SN12C renal
[14] = tested on: NCI-H23 lung
[15] = tested on: SK-MEL-2 melanoma
[16] = tested on: U251 CNS
[17] = tested on: ACHN renal
[18] = tested on: BT-549 breast
[19] = tested on: UO-31 renal
[20] = tested on: UACC-62 melanoma
[21] = tested on: M14 melanoma
[22] = tested on: HL-60(TB) leukemia
[23] = tested on: TK-10 renal
[24] = tested on: HT29 colon
[25] = tested on: MALME-3M melanoma
[26] = tested on: 786-0 renal
[27] = tested on: HCT-116 colon
[28] = tested on: EKVX NSCLC
[29] = tested on: SF-295 CNS
[30] = tested on: HOP-62 NSCLC
[31] = tested on: NCI-H460 lung
[32] = tested on: HCT-15 colon
[33] = tested on: SK-MEL-28 melanoma
[34] = tested on: SK-OV-3 ovarian
[35] = tested on: SF-268 CNS
[36] = tested on: T-47D breast
[37] = tested on: KM12 colon
[38] = tested on: RPMI-8226 leukemia
[39] = tested on: DU-145 prostate
[40] = tested on: OVCAR-8 ovarian
[41] = tested on: IGROV1 ovarian
[42] = tested on: SW-620 colon
[43] = tested on: OVCAR-4 ovarian
[44] = tested on: SR leukemia
[45] = tested on: MDA-MB-231 breast
[46] = tested on: RXF 393 renal
[47] = tested on: K-562 leukemia
[48] = tested on: SNB-75 CNS
[49] = tested on: SNB-19 CNS

CC1=C(C(=O)Nc2ccc(Cl)c(Cl)c2)C(c2cccc(Cl)c2)NC(=S)N1 (stereo not drawn)
45.5 µM: TGI [22]
48.3 µM: TGI [7]
29.6 µM: TGI [16]
20.2 µM: TGI [21]
38.6 µM: TGI [18]
29.8 µM: TGI [25]
21.5 µM: TGI [27]
24.9 µM: TGI [19] | TGI [49]
31.7 µM: TGI [40]
20.9 µM: TGI [14]
37.6 µM: TGI [37]
45.1 µM: TGI [12]
42.5 µM: TGI [43]
41.8 µM: TGI [35]
33 µM: TGI [34]
37.5 µM: TGI [3]
> 50 µM: TGI [1] | TGI [2] | TGI [4] | TGI [6] | TGI [8] | TGI [9] | TGI [10] | TGI [11] | TGI [23] | TGI [24] | TGI [29] | TGI [31] | TGI [32] | TGI [33] | TGI [36] | TGI [38] | TGI [44] | TGI [47] | TGI [48]
28.8 µM: TGI [28]
44 µM: TGI [39]
19.3 µM: TGI [45]
23.6 µM: TGI [46]
27.1 µM: TGI [15]
36.1 µM: TGI [42]
inactive: GI50 [1] 14.2 µM | GI50 [2] 14.2 µM | GI50 [3] 10.5 µM | GI50 [4] 12.8 µM | GI50 [5] 2 µM | GI50 [6] 14.1 µM | GI50 [7] 11.2 µM | GI50 [8] 17.4 µM | GI50 [9] 23.2 µM | GI50 [10] 30.5 µM | GI50 [11] > 50 µM | GI50 [12] 14 µM | GI50 [13] 8.4 µM | GI50 [14] 9.79 µM | GI50 [15] 14.5 µM | GI50 [16] 10.7 µM | GI50 [17] 12.4 µM | GI50 [18] 16.4 µM | GI50 [19] 11.1 µM | GI50 [20] 8.1 µM | GI50 [21] 9.75 µM | GI50 [22] 16.5 µM | GI50 [23] 17.7 µM | GI50 [24] 16.1 µM | GI50 [25] 10.9 µM | GI50 [26] 8.79 µM | GI50 [27] 7.75 µM | GI50 [28] 12.2 µM | GI50 [29] 17.4 µM | GI50 [30] 10.3 µM | GI50 [31] 24.3 µM | GI50 [32] 15.1 µM | GI50 [33] 15.6 µM | GI50 [34] 15.2 µM | GI50 [35] 16.5 µM | GI50 [36] 31.5 µM | GI50 [37] 11.6 µM | GI50 [38] 23 µM | GI50 [39] 14.4 µM | GI50 [40] 12.4 µM | GI50 [41] 8.83 µM | GI50 [42] 15.6 µM | GI50 [43] 13.4 µM | GI50 [44] 17.1 µM | GI50 [45] 8.15 µM | GI50 [46] 9.63 µM | GI50 [47] 19.7 µM | GI50 [48] 30.4 µM | GI50 [49] 10.5 µM
4.32 µM: TGI [5]
18.1 µM: TGI [20]
37.1 µM: TGI [17]
18.3 µM: TGI [13] | TGI [26]
35 µM: TGI [41]
19.2 µM: TGI [30]
